Results: US20070083037A1, “Monkey npy y4 receptor and method of evaluating compound” (priority 2003, published 2007)

How the values were obtained:
[1] = system: rhesus monkey NPY Y4 receptor (SEQ ID NO: 3); assay: [125I]human PP binding assay using COS-7 cells expressing rhesus monkey Y4 receptor (SEQ ID NO: 3); settings: COS-7 cells transfected with SEQ ID NO: 3; 50 pM [125I]human PP; non-specific binding with 1 μM human PP
Procedure: (§1) COS-7 cells (American Type Culture Collection) were seeded in a 24-well culturing plate at a density of 5×10^4 cells/well, and after 24 hours, they were transfected with a pEF1/V5-HisB plasmid vector containing the nucleotide sequence of SEQ ID NO: 1 or 3 obtained in Example 1 or the same vector without the insert (mock), using Efectene (Qiagen). After culturing for 48 hours, incubation was performed at 37° C. for 30 minutes in 240 μl/well of reaction buffer (Hanks' balanced salt solution containing 20 mM HEPES and 0.2% bovine serum albumin; pH 7.4) to which 50 pM [^125I]human PP (Perkin-Elmer) had been added. After rinsing with ice-cooled reaction buffer, the cells were lysed and recovered with 2M NaOH and the radioactivity was measured with a γ-counter (Packard, Cobra).
(§2) Non-specific binding was also measured by adding 1 μM human PP to the reaction solution.

[2] = system: rhesus monkey NPY Y4 receptor (SEQ ID NO: 1); assay: [125I]human PP binding assay using COS-7 cells expressing rhesus monkey Y4 receptor (SEQ ID NO: 1); settings: COS-7 cells transfected with SEQ ID NO: 1; 50 pM [125I]human PP; non-specific binding with 1 μM human PP
Chain of rhesus monkey NPY Y4 receptor (SEQ ID NO: 1) (as listed by the source): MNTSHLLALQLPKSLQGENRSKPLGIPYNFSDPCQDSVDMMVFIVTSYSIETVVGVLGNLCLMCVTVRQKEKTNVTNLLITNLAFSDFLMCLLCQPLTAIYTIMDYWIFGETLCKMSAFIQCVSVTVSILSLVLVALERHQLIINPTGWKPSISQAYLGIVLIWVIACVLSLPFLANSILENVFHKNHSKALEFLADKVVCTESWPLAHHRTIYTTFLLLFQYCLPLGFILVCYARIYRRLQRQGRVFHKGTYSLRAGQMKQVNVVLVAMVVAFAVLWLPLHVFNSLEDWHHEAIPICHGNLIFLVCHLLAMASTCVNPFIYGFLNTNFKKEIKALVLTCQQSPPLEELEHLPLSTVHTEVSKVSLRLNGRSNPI
Procedure: as §1, §2

[3] = system: rhesus monkey NPY Y4 receptor (SEQ ID NO: 1); assay: Receptor binding assay using rhesus monkey Y4 receptor-expressing COS-7 cell membrane fractions (SEQ ID NO: 1), inhibition of [125I]human PP binding; settings: expression vector SEQ ID NO: 1; COS-7 membrane fraction; 59 pM [125I]human PP; read-out: IC50 against specific [125I]human PP binding
Procedure: (§3) COS-7 cells were transfected with a pEF1/[…]B plasmid vector containing the nucleotide sequence of SEQ ID NO: 1 or 3, using LipofectAmine Plus (Invitrogen). After 48 hours, the cells were recovered, and disrupted in 10 mM MOPS buffer (pH 7.4) containing 20% sucrose, 154 mM NaCl, 10 mM KCl and 0.8 mM CaCl2, using a Polytron homogenizer (Kinematica) while cooling on ice. The obtained homogenate was centrifuged at 1,000×g, 4° C. for 15 minutes, the supernatant was centrifuged at 90,000×g for 50 minutes, and the precipitate was collected. It was then suspended in 5 mM HEPES/Tris buffer (pH 7.4) and then centrifuged again at 90,000×g for 50 minutes, after which the obtained precipitate was collected as the membrane sample. […] After rinsing with 5 mM Tris buffer (pH 7.4) containing 0.3% bovine serum albumin and drying, MicroScint0 (Perkin-Elmer) was added, and a TopCount HTS (Packard) was used to measure the residual radioactivity on the filter.

[4] = system: rhesus monkey NPY Y4 receptor (SEQ ID NO: 3); assay: Receptor binding assay using rhesus monkey Y4 receptor-expressing COS-7 cell membrane fractions (SEQ ID NO: 3), inhibition of [125I]human PP binding; settings: expression vector SEQ ID NO: 3; COS-7 membrane fraction; 59 pM [125I]human PP; read-out: IC50 against specific [125I]human PP binding
Procedure: as §3

Chain of rhesus monkey NPY Y4 receptor (SEQ ID NO: 3) (as listed by the source): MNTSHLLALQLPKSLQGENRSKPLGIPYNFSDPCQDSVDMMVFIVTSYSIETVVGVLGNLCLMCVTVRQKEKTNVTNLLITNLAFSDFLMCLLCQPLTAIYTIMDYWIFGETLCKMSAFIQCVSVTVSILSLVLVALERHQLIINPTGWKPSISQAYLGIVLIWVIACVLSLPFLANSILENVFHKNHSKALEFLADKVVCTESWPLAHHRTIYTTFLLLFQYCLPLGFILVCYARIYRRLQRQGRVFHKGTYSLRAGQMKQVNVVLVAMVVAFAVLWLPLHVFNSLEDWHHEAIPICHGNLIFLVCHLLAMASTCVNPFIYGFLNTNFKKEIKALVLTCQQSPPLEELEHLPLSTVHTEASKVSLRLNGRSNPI

Row | IC50 [3] [nM] | IC50 [4] [nM] | Substance | Specific binding [1] [cpm] | Specific binding [2] [cpm]
1 | – | – | [125I]human PP: 125I-labelled human PP radioligand (Perkin-Elmer) | 1394 | 1238
2 | 100 | 97 | Neuropeptide-Y [Human NPY] | – | –
